{
  "source": "patent US20250057823A1",
  "about": "“COMPOSITION FOR IMPROVING CARDIAC FUNCTION” (Kyoto University, priority 2021, published 2025)",
  "key": {"[1]": {"system": "beagle dog models of heart failure", "test": "Beagle dog models of rapid ventricular pacing-induced heart failure", "assay_type": "in vivo", "procedure": "After induction of general anesthesia with thiopental sodium (20 mg/kg, i.v.: 0.5 g of Labonal injection, Nipro ES Pharma Corporation) in 10- to 12-month-old male beagle dogs (9.80-11.50 kg), a tracheal cannula was inserted into the airway, and artificial respiration was performed with an Acoma veterinary ventilator (PRO-45Va, Acoma Medical Corporation). Anesthesia was maintained by inhalation of a gas mixture (Air:O2=3:0.2) and 1.0 to 2.5% isoflurane (isoflurane inhalation solution “Pfizer”, Mylan Seiyaku Co., Ltd.) using an Acoma animal anesthesia machine (NS-5000A, Acoma Medical Industry Co., Ltd.) to maintain a constant depth of anesthesia. An incision was made in the right side of the neck of the animal, an animal internal cardiac pacemaker (SIP-501, Star Medical Corporation) was implanted subcutaneously, a retractable screw-in reed (Tendril STS J, St. Jude Medical, Inc.) was inserted through the right jugular vein under X-ray fluoroscopy (BV Pulsera, Koninklijke Philips N.V.), and the tip was implanted in the right ventricular wall. Pacing was started at 244-251 beats/min on postoperative day 1. Dogs with ejection fraction (EF) decreasing to 30-50% at 4 weeks after pacemaker activation were considered to have heart failure and subjected to analysis.\nEchocardiography was performed using a general-purpose ultrasound imaging system (Vivid S6, GE Medical Systems). The left ventricular end-diastolic diameter (LVIDd), left ventricular end-systolic diameter (LVIDs), ejection fraction (EF), and left ventricular internal diameter shortening (% FS) were measured in M-mode by placing a sector probe (10 MHz) on the chest.\nDogs were anesthetized intravenously with 14.5 to 22.3 mg/kg of secobarbital sodium (Injectable Ionar sodium (0.2), Nichi-Iko Co., Ltd.), followed by subcutaneous administration of 0.2 mg/kg of meloxicam (Metacam 0.5% injection, Boehringer Ingelheim Animal Health Japan Co.). A tracheal tube was inserted into the airway and connected to an Acoma animal ventilator (PRO-45Va, Acoma Medical Industry Co., Ltd.). The ventilator was set at a respiratory rate of 14-18 strokes/min and a tidal volume of 10-20 mL/kg/stroke, and respiration was controlled by an Acoma animal anesthesia machine (NS-5000A, Acoma Medical Industry Co., Ltd.) using a gas mixture (FiO2=0.3-1.0). The exhaled CO2 partial pressure was monitored using an exhaled carbon dioxide monitor (OLG-2800, Nihon Kohden Corporation). The animals were fixed in the dorsal position and the thighs and neck were shom. Anesthesia was maintained by continuous intravenous infusion of sodium secobarbital (5 mg/kg/hr) through the radial cutaneous vein using a Telfusion syringe pump (STC-523, Terumo Corporation). A Swan-Ganz catheter was inserted through the left femoral vein. A catheter for coronary angiography was inserted through the left femoral artery. A 5F sheath for arterial blood sampling was placed in the right femoral artery. A catheter for PV-loop analysis was inserted from the left internal carotid artery. An 8F occlusion balloon was placed from the right femoral vein for occlusion testing. In addition, KUS121 was administered from the left common jugular vein.\nBeagle dog models of heart failure were prepared by rapid ventricular pacing. Cardiac function was assessed by echocardiography before KUS121 administration and after continuous infusion at 40 mg/h. KUS121 increased LVEF, even if it was based on either of the Teichholz method and the modified-Simpson's method, and increased % FS (FIG. 18). Changes in heart rate, systolic blood pressure, diastolic blood pressure, left ventricular ejection fraction, mean pulmonary artery pressure, pulmonary capillary wedge pressure, left ventricular end-diastolic pressure, and adjusted dp/dt are shown in FIGS. 19 to 21. […]"}, "[2]": {"system": "TAC mice", "test": "Acute effect on mouse models of heart failure (TAC, single injection 5 weeks later)", "assay_type": "in vivo", "procedure": "Transverse aortic constriction (TAC) was performed as described previously [Date, et al. (2002) The antioxidant N-2-mercaptopropionyl glycine attenuates left ventricular hypertrophy in in vivo murine pressure-overload model. J Am Coll Cardiol 39: 907-912.]. Briefly, 8- to 10-week-old mice were anesthetized with anesthetic (0.3 mg/kg of medetomidine, 4.0 mg/kg of midazolam, and 5.0 mg/kg of butorphanol) administered intraperitoneally, and the proximal portion of the sternum was cut open to visualize the aorta. A 7-0 silk suture was placed around the aortic arch distal to the brachiocephalic artery. The suture was tightened firmly around a blunt 26-gauge needle placed adjacent to the aorta. The needle was then removed, and the chest and overlying skin were closed. Sham-operated mice underwent an identical surgical procedure without ligation of the aortic arch. At the end of the operation, 0.3 mg/kg of atipamezole was administered subcutaneously to reverse medetomidine. FIG. 1 is a schematic diagram of TAC.\nTo analyze the cardiac function, we used Vevo® 2100 (VISUALSONICS) at the indicated time points after TAC operation. Mice were kept under inhalation anesthesia with 2.5% isoflurane. LV function was measured in M mode of the parasternal short-axis view.\nMice were subjected to TAC at 8 weeks of age. Five weeks later (at 13 weeks of age), the mice were injected with KUS121 (50 mg/kg), and left ventricular ejection fraction (LVEF), left ventricular end-diastolic diameter (LVDd), and heart rate (HR) were assessed by echocardiography before and 10 minutes after the injection.\nMice were subjected to TAC at 8 weeks of age. Five weeks later (at 13 weeks of age), the mice were injected with KUS121 (50 mg/kg), and left ventricular pressure was measured by catheterization before and 10 minutes after the injection. The left ventricular pressure was 46.6 mmHg before KUS121 administration, and increased to 128.9 mmHg 10 minutes after the administration. In addition, Max/min dp/dt was changed from 1295.5/−621.4 mmHg/s to 3972.8/−1311.1 mmHg/s. […] Left ventricular ejection fraction was then measured over time and was 37% before KUS121 administration, increased to 67% 5 minutes after the administration, and returned to the baseline about 2 hours after the administration (FIG. 16).\nMice were subjected to TAC at 8 weeks of age. Five weeks later (at 13 weeks of age), the mice were injected with KUS187 (50 mg/kg), and left ventricular ejection fraction was assessed by echocardiography before and 10 minutes after the injection."}, "[3]": {"conditions": "echocardiography, before vs after continuous infusion at 40 mg/h"}, "[4]": {"conditions": "infusion per FIG. 17 protocol, cardiac catheterization"}, "[5]": {"conditions": "TAC mice 5 weeks after TAC, 50 mg/kg, echocardiography before and 10 minutes after injection"}},
  "note": "“Also recorded” adds a separate entry of the source. Counter-ions that a name gives are not always drawn.",
  "data": [
    {"smiles": "Cc1cc(F)ccc1-c1ccc(/N=N/c2cc(S(=O)(=O)O)c3ccccc3c2N)cn1", "note": "[KUS121, 4-amino-3-[6-(4-fluoro-2-methylphenyl)pyridine-3-ylazo]naphthalene-1-sulfonic acid sodium salt]", "values": [
      {"measurement": "liver and kidney functions", "setting": "[1]; blood samples collected during acute phase", "result": "remained normal"},
      {"measurement": "% FS (fractional shortening in left ventricle)", "setting": "[1]; [3]", "result": "increased"},
      {"measurement": "LVEF based on the Teichholz method", "setting": "[1]; [3]", "result": "increased"},
      {"measurement": "LVEF based on the modified-Simpson's method", "setting": "[1]; [3]", "result": "increased"},
      {"measurement": "heart rate", "setting": "[1]; infusion per FIG. 17 protocol", "result": "without affecting"},
      {"measurement": "left ventricular diastolic function", "setting": "[1]; infusion per FIG. 17 protocol", "result": "improved"},
      {"measurement": "left ventricular systolic function", "setting": "[1]; infusion per FIG. 17 protocol", "result": "improved"},
      {"measurement": "systolic blood pressure", "setting": "[1]; infusion per FIG. 17 protocol", "result": "without affecting"},
      {"measurement": "pulmonary artery pressure", "setting": "[1]; [4]", "result": "lowered"},
      {"measurement": "pulmonary capillary wedge pressure", "setting": "[1]; [4]", "result": "lowered"},
      {"measurement": "left ventricular ejection fraction", "setting": "[2]; 5 minutes after 50 mg/kg, 37% before administration", "result": 67, "unit": "%"},
      {"measurement": "heart rate (HR)", "setting": "[2]; TAC mice 5 weeks after TAC, 50 mg/kg, before and 10 minutes after injection, sodium salt, 50 mg/kg", "result": "without significantly affecting heart rate; also recorded: without affecting HR"},
      {"measurement": "left ventricular ejection fraction (LVEF)", "setting": "[2]; [5]", "result": "Recoveries"},
      {"measurement": "left ventricular end-diastolic diameter (LVDd)", "setting": "[2]; [5]", "result": "Recoveries"},
      {"measurement": "time after administration at which left ventricular ejection fraction returned to the baseline", "setting": "[2]; TAC mice, 50 mg/kg, LVEF measured over time", "result": "about 2 hours"},
      {"measurement": "left ventricular pressure", "setting": "[2]; catheterization, 10 minutes after 50 mg/kg, 46.6 mmHg before administration", "result": 128.9, "unit": "mmHg"},
      {"measurement": "Max dp/dt", "setting": "[2]; catheterization, 10 minutes after 50 mg/kg, 1295.5 mmHg/s before administration", "result": 3972.8, "unit": "mmHg/s"},
      {"measurement": "min dp/dt", "setting": "[2]; catheterization, 10 minutes after 50 mg/kg, −621.4 mmHg/s before administration", "result": "−1311.1", "unit": "mmHg/s"}
    ]}
  ]
}
